Measurements taken from PubChem BioAssay AID1918937 (Molecular Pharmacology Branch, DTP, NCI, 2023).

Tested on: 521955-158-R2-J5-PDC complex spheroid viability
Assay: Anticancer human tumor 521955-158-R2-J5-PDC patient-derived pancreatic carcinoma cell line growth inhibition
Conditions: for IC50: curve of first compound; for viability, T/C: stronger effect = lower value
Source text: Multicellular complex tumor spheroid response to LSD1 Inhibitor Iadademstat in combination with a variety of drugs and investigational agents in selected tumor cell lines
The current study was undertaken to assess response to LSD1 inhibitors in combination with standard-of-care drugs and investigational agents in solid tumor complex spheroid models as well as in the K-562 leukemia. Complex spheroids include a stromal component modeled by human endothelial cells (HUVEC) and fibroblasts modeled by human mesenchymal stem cells (MSCs). The concentration ranges selected for each drug and investigational agent were based upon clinically achievable concentrations if the clinical Cmax of the agent was known.
Compounds. The drugs and investigational agents used in this study are listed on Table 1. All of the agents used, including staurosporine (NSC755774) and gemcitabine (NSC613327), were obtained from the Developmental Therapeutics Program, NCI. FDA-approved anticancer drugs are available from the NCI at http://dtp.nci.nih.gov/branches/dscb/oncology_drugset_explanation.html. Drugs and investigational agents were >95% pure by proton nuclear magnetic resonance (NMR) and liquid chromatography/mass spectrometry (LC/MS). Stock solutions were prepared at 400x in DMSO, stored at -70 degrees C, and diluted in fresh medium prior to their use. The final concentration of DMSO in cell culture wells never exceeded 0.25% (v/v). The FDA-approved anticancer drug set is available from the Developmental Therapeutics Program at https://dtp.cancer.gov/organization/dscb/obtaining/available_plates.htm. All drugs and investigational agents were tested over a range starting from a high concentration at or near the clinical Cmax and decreasing in half-log increments. If the clinical Cmax for an agent had not been determined, the highest concentration tested was 10 microM.
Cell Lines. The patient-derived cancer cell (PDC) lines: 292921-168-R-J2-PDC, K24384-001-R-PDC, and 521955-158-R2-J5-PDC pancreatic carcinomas, 556581-035-R-J1 ovarian carcinoma, 324938-238-R-J1-PDC, 855422-203-R-J1-PDC and 883617-216-R-J1-PDC urothelial bladder carcinomas, 743489-274-T-PDC renal cell carcinoma, 138582-R-J1 Merkel cell tumor, K60290-347-R-J1 and K57222-313-R-J1-PDC glioblastomas, 653999-131-R-J2-PDC, LG0703-F948-PDC, and 349418-098-R-PDC non-small cell lung carcinomas, 885512-296-R-J2-PDC, 171881-019-R-J1-PDC breast carcinomas and 186277-243-T-J2-PDC and 233499-124-R-J2-PDC colon carcinomas were obtained from the NCI Patient-Derived Models Repository (PDMR, https://pdmr.cancer.gov). The established cell lines NCI/ADR-RES (RRID:CVCL_14520 and OVCAR-5 (RRID:CVCL_1628) ovarian carcinomas, 786-O (RRID:CVCL_1051) and A498 (RRID:CVCL_A498) renal cell carcinoma, NCI-H211 (ATCC, cat. CRL-5824; RRID:CVCL_1529), NCI-H196 (ATCC, cat. CRL-5823, RRID:CVCL_1509), SW 1271 (ATCC, cat. CRL-2177, RRID:CVCL_1716) and NCI-H1876 (ATCC, cat. CRL-5902, RRID:CVCL_1503) small cell lung carcinomas, MDA-MB-231 (RRID:CVCL_0062) and MDA-MB-468 (RRID:CVCL_0419)breast carcinomas (10-12). Pooled donor human umbilical vein endothelial cells (HUVEC, Lonza, cat. CC-2519) and human mesenchymal stem cells (hMSC, Lonza, cat. PT-2501) were purchased from Lonza (Walkersville, MD).
Cell Culture. All cells were maintained in an incubator at 37 degrees C and 5% CO2 with 95% humidity. The PDC lines were cultured according to standard operating procedures established by the NCI PDMR (https://pdmr.cancer.gov). Briefly all PDCs were thawed and cultured in Matrigel-coated flasks prepared with a working solution of 1X Ham's F-12 nutrient mix, without supplementation (Invitrogen, Waltham, MA, cat. 11765054), 100 U/mL penicillin-streptomycin (Invitrogen, cat. 15140122), and 2.5% Matrigel (Corning Inc., Corning, NY, cat. 354248) for the first three passages. […]
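Also: spheroids exposed to agents for seven days.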
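For viability, T/C in this document: percent of DMSO vehicle control luminescence viability.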

Q: `COc1cc(C2c3cc4c(cc3C(OC3OC5COC(C)OC5C(O)C3O)C3COC(=O)C23)OCO4)cc(OC)c1O` (stereo not given) + NC1CC1c1ccc(-c2cccc(O)c2)cc1 was tested. Which IC50 (second compound 0.1 µM) did it give?
A: Its IC50 is 198 nM.

Q: What about the IC50 (second compound 0.316 µM) of the same molecule?
A: The IC50 was 227 nM.

Q: And the IC50 (second compound 1 µM)?
A: The IC50 was 249 nM.

Q: What about the IC50 (second compound 3.16 µM) of the same molecule?
A: Its IC50 is 181 nM.

Q: And the IC50 (second compound 10 µM)?
A: Its IC50 is 265 nM.

Q: What about the viability, T/C (second compound 0.1 µM, first compound 0.00949 µM) of the same molecule?
A: The viability, T/C was 86.6%.

Q: And the viability, T/C (second compound 0.1 µM, first compound 0.03 µM)?
A: The viability, T/C was 94.8%.

Q: And the viability, T/C (second compound 0.1 µM, first compound 0.0949 µM)?
A: The viability, T/C was 66.2%.

Q: What about the viability, T/C (second compound 0.1 µM, first compound 0.3 µM) of the same molecule?
A: Its viability, T/C is 39.9%.

Q: And the viability, T/C (second compound 0.1 µM, first compound 0.949 µM)?
A: Its viability, T/C is 23%.

Q: And the viability, T/C (second compound 0.1 µM, first compound 3 µM)?
A: The viability, T/C was 15.3%.

Q: What about the viability, T/C (second compound 0.316 µM, first compound 0.00949 µM) of the same molecule?
A: The viability, T/C was 87.3%.

Q: What about the viability, T/C (second compound 0.316 µM, first compound 0.03 µM) of the same molecule?
A: The viability, T/C was 83.6%.

Q: And the viability, T/C (second compound 0.316 µM, first compound 0.0949 µM)?
A: The viability, T/C was 66.3%.

Q: What about the viability, T/C (second compound 0.316 µM, first compound 0.3 µM) of the same molecule?
A: The viability, T/C was 44.6%.

Q: What about the viability, T/C (second compound 0.316 µM, first compound 0.949 µM) of the same molecule?
A: Its viability, T/C is 27.8%.

Q: And the viability, T/C (second compound 0.316 µM, first compound 3 µM)?
A: The viability, T/C was 19.2%.

Q: And the viability, T/C (second compound 1 µM, first compound 0.00949 µM)?
A: The viability, T/C was 84.2%.

Q: And the viability, T/C (second compound 1 µM, first compound 0.03 µM)?
A: Its viability, T/C is 87.2%.

Q: And the viability, T/C (second compound 1 µM, first compound 0.0949 µM)?
A: Its viability, T/C is 64%.

Q: What about the viability, T/C (second compound 1 µM, first compound 0.3 µM) of the same molecule?
A: Its viability, T/C is 47.1%.

Q: What about the viability, T/C (second compound 1 µM, first compound 0.949 µM) of the same molecule?
A: The viability, T/C was 30.9%.

Q: What about the viability, T/C (second compound 1 µM, first compound 3 µM) of the same molecule?
A: The viability, T/C was 20.2%.

Q: What about the viability, T/C (second compound 3.16 µM, first compound 0.00949 µM) of the same molecule?
A: Its viability, T/C is 89.4%.

Q: What about the viability, T/C (second compound 3.16 µM, first compound 0.03 µM) of the same molecule?
A: The viability, T/C was 88.5%.

Q: What about the viability, T/C (second compound 3.16 µM, first compound 0.0949 µM) of the same molecule?
A: The viability, T/C was 53.8%.

Q: What about the viability, T/C (second compound 3.16 µM, first compound 0.3 µM) of the same molecule?
A: Its viability, T/C is 44.4%.

Q: And the viability, T/C (second compound 3.16 µM, first compound 0.949 µM)?
A: Its viability, T/C is 30.3%.

Q: And the viability, T/C (second compound 3.16 µM, first compound 3 µM)?
A: Its viability, T/C is 19.8%.

Q: What about the viability, T/C (second compound 10 µM, first compound 0.00949 µM) of the same molecule?
A: Its viability, T/C is 95.9%.

Q: And the viability, T/C (second compound 10 µM, first compound 0.03 µM)?
A: The viability, T/C was 83.6%.

Q: What about the viability, T/C (second compound 10 µM, first compound 0.0949 µM) of the same molecule?
A: Its viability, T/C is 67.5%.

Q: And the viability, T/C (second compound 10 µM, first compound 0.3 µM)?
A: The viability, T/C was 49.8%.

Q: What about the viability, T/C (second compound 10 µM, first compound 0.949 µM) of the same molecule?
A: The viability, T/C was 30.6%.

Q: And the viability, T/C (second compound 10 µM, first compound 3 µM)?
A: Its viability, T/C is 27%.

Q: Which IC50 (second compound 0.1 µM) does the source give for `Nc1ncn(C2CC(O)C(CO)O2)c(=O)n1` (stereo not given) + NC1CC1c1ccc(-c2cccc(O)c2)cc1 here?
A: Its IC50 is over 1000 nM.

Q: And the IC50 (second compound 0.316 µM)?
A: Its IC50 is over 1000 nM.

Q: What about the IC50 (second compound 1 µM) of the same molecule?
A: Its IC50 is over 1000 nM.

Q: And the IC50 (second compound 3.16 µM)?
A: Its IC50 is over 1000 nM.

Q: What about the IC50 (second compound 10 µM) of the same molecule?
A: Its IC50 is over 1000 nM.

Q: What about the viability, T/C (second compound 0.1 µM, first compound 0.00316 µM) of the same molecule?
A: Its viability, T/C is 89.9%.

Q: What about the viability, T/C (second compound 0.1 µM, first compound 0.01 µM) of the same molecule?
A: The viability, T/C was 81.6%.

Q: And the viability, T/C (second compound 0.1 µM, first compound 0.0316 µM)?
A: Its viability, T/C is 83.7%.

Q: What about the viability, T/C (second compound 0.1 µM, first compound 0.1 µM) of the same molecule?
A: The viability, T/C was 76.3%.

Q: And the viability, T/C (second compound 0.1 µM, first compound 0.316 µM)?
A: The viability, T/C was 58.7%.

Q: And the viability, T/C (second compound 0.1 µM, first compound 1 µM)?
A: The viability, T/C was 52.4%.

Q: And the viability, T/C (second compound 0.316 µM, first compound 0.00316 µM)?
A: The viability, T/C was 78.3%.

Q: What about the viability, T/C (second compound 0.316 µM, first compound 0.01 µM) of the same molecule?
A: The viability, T/C was 89.6%.

Q: And the viability, T/C (second compound 0.316 µM, first compound 0.0316 µM)?
A: Its viability, T/C is 101%.

Q: What about the viability, T/C (second compound 0.316 µM, first compound 0.1 µM) of the same molecule?
A: Its viability, T/C is 73.4%.

Q: What about the viability, T/C (second compound 0.316 µM, first compound 0.316 µM) of the same molecule?
A: The viability, T/C was 65.5%.

Q: What about the viability, T/C (second compound 0.316 µM, first compound 1 µM) of the same molecule?
A: Its viability, T/C is 53.1%.

Q: What about the viability, T/C (second compound 1 µM, first compound 0.00316 µM) of the same molecule?
A: The viability, T/C was 84.1%.

Q: What about the viability, T/C (second compound 1 µM, first compound 0.01 µM) of the same molecule?
A: Its viability, T/C is 91.2%.

Q: What about the viability, T/C (second compound 1 µM, first compound 0.0316 µM) of the same molecule?
A: Its viability, T/C is 86.6%.

Q: What about the viability, T/C (second compound 1 µM, first compound 0.1 µM) of the same molecule?
A: Its viability, T/C is 76.9%.

Q: What about the viability, T/C (second compound 1 µM, first compound 0.316 µM) of the same molecule?
A: Its viability, T/C is 68.8%.

Q: What about the viability, T/C (second compound 1 µM, first compound 1 µM) of the same molecule?
A: The viability, T/C was 59.8%.

Q: And the viability, T/C (second compound 3.16 µM, first compound 0.00316 µM)?
A: Its viability, T/C is 80.9%.

Q: What about the viability, T/C (second compound 3.16 µM, first compound 0.01 µM) of the same molecule?
A: Its viability, T/C is 83.9%.

Q: What about the viability, T/C (second compound 3.16 µM, first compound 0.0316 µM) of the same molecule?
A: Its viability, T/C is 82.2%.

Q: And the viability, T/C (second compound 3.16 µM, first compound 0.1 µM)?
A: Its viability, T/C is 79%.

Q: And the viability, T/C (second compound 3.16 µM, first compound 0.316 µM)?
A: The viability, T/C was 76%.

Q: What about the viability, T/C (second compound 3.16 µM, first compound 1 µM) of the same molecule?
A: Its viability, T/C is 65.1%.

Q: And the viability, T/C (second compound 10 µM, first compound 0.00316 µM)?
A: Its viability, T/C is 87.7%.

Q: And the viability, T/C (second compound 10 µM, first compound 0.01 µM)?
A: Its viability, T/C is 94%.

Q: And the viability, T/C (second compound 10 µM, first compound 0.0316 µM)?
A: Its viability, T/C is 95.9%.

Q: And the viability, T/C (second compound 10 µM, first compound 0.1 µM)?
A: Its viability, T/C is 80.7%.

Q: What about the viability, T/C (second compound 10 µM, first compound 0.316 µM) of the same molecule?
A: Its viability, T/C is 75.5%.

Q: And the viability, T/C (second compound 10 µM, first compound 1 µM)?
A: The viability, T/C was 67.4%.
